These results are taken from ChEMBL document CHEMBL1155619, “Kurstakins: a new class of lipopeptides isolated from Bacillus thuringiensis” (2000).

The source made the active and inactive calls. The calls are words filed in the database; no cut-off is given here. Starred links: 1 amine or outer side, 2 acyl side, 3 side chain; linkers in the order of their positions; H or OH if unused. Positions of bridges follow the written chain, without caps; N, C: chain ends. Non-standard residues stand in square brackets, D forms with d. Residues, ends and D or L forms follow the SMILES beside them. X1 = CC(C)CCCCCCCCC[C@H](CC(=O)[*:1])O[*:2]

This experiment relates to Stachybotrys chartarum. Briefly: Antifungal activity against Stachybotrys charatum assessed as zone of inhibition at 80 ug after 24 hrs. It counts as functional.

Consider `CC(C)CCCCCCCCC[C@@H]1CC(=O)N[C@@H](CCC(=O)O)C(=O)N[C@@H](CC(C)C)C(=O)N[C@H](CC(C)C)C(=O)N[C@@H](C(C)C)C(=O)N[C@@H](CC(=O)O)C(=O)N[C@H](CC(C)C)C(=O)N[C@@H](CC(C)C)C(=O)O1` (EL[dL]VD[dL]L; linker N-C via X1), for which the outcome was inactive.
